{"source": "patent US20220023269A1", "about": "“Methods Of Treating Diabetes In Severe Insulin-Resistant Diabetic Subjects” (Balticgruppen Bio AB, priority 2018, published 2022)", "key": {"PP2Ca": {"target": "T1, PP2Ca (Homo sapiens, UniProt P35813)", "T1 construct": "purchased Abcam ab51205", "T1 sequence (P35813 whole entry)": "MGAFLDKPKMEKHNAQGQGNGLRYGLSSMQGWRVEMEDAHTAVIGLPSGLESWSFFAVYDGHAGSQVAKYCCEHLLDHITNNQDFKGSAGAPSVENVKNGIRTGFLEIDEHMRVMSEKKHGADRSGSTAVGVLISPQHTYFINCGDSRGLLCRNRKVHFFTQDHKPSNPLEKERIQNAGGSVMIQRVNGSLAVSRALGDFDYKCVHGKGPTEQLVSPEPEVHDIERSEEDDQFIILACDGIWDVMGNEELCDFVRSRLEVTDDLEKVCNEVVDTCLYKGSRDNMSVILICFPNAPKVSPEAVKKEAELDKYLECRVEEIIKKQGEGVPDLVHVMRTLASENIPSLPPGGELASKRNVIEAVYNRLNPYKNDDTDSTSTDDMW", "experiment": "PP2C phosphatase activity assay", "format": "biochemical", "details": "5, 10 or 20 μM", "procedure": "3 ng/μl PP2Ca (Abcam ab51205) and 5, 10 or 20 μM test material in buffer (50 mM Tris-HCL pH 7.5, 0.1 mM EDTA, 0.5 mM DTT, 5 mM MgCl2) was used in the Sensolyte FDP protein phosphatase assay kit (Anaspec #71100) according to the manufacturer's instructions to measure the activity of PP2Ca. The fluorescence intensity was measured in a Bio Tek Synergy H4 multi-mode microplate reader."}, "rat skeletal L6 myotubes": {"test_system": "rat skeletal L6 myotubes", "experiment": "Glucose uptake in L6 myotubes", "format": "cell-based", "details": "2.5, 5, 10 μM; absence of insulin; siAMPKα1/α2", "procedure": "Rat L6 skeletal muscle cells grown in high-glucose (4.5 g/L) Dulbecco's Modified Eagle Medium (Gibco #31966), 10% fetal bovine serum (Gibco #10500-064) and 25 μg/ml gentamicin (Gibco 1 #5750) were induced to differentiate, by reducing the serum concentration to 2% for 14 days by which time the majority of myoblast had differentiated to myotubes. Myotubes were rinsed in serum-free low-glucose (1 g/L) DMEM (Gibco a #21885), treated with vehicle control, 2.5, 5 and 10 μM test material (serum-free low-glucose DMEM, 0.1% DMSO) for 2 hours, rinsed in serum-free DMEM w/o glucose (Gibco #11966) and thereafter incubated with the same for 20 minutes before addition of 1 μCi 2-Deoxy-D-glucose (2-DG) (Perkin Elmer #NET549A250UC) for 10 minutes. The cells were rinsed 3 times in serum-free DMEM w/o glucose and lysed in 1 ml RIPA buffer (150 mM Sodiumchloride, 1% NP40, 0.5% Sodiumdeoxycholate, 0.1% SDS, 50 mM Tris pH8.0). 300 μl were added to 4 ml liquid scintillation cocktail (Perkin Elmer #1200-437) before counted, 1 minute, in a Wallac 1414 beta counter. CPM was converted to arbitrary units by setting vehicle control as 1. […]"}, "CBA mice on HFD": {"test_system": "CBA mice on HFD", "experiment": "Crossover HFD / test material-HFD (2 mg/g) at housing and thermoneutral conditions", "format": "in vivo", "procedure": "14 weeks old CBA mice were randomised into HFD and test material-HFD (2 mg/g) groups for 2 weeks while housed at 22° C. The two groups were then switched from HFD to test material-HFD and vice versa for an additional 4.5 weeks before transferred from 22° C. to 30° C. (thermoneutrality). After one week at 30° C. the diet was switched again and one week after the switch core body temperature were determined.\nFood intake was measured weekly by giving each cage 200 g pellet. After one week, the amount of pellets consumed were calculated and adjusted according to the number of animals/cage. Body weight was measured weekly. Body composition was assessed using EchoMRI."}, "[1]": {"test_system": "diet-induced obese C57BL/6J mice", "experiment": "Combination therapy AMPK activator + SGLT2 inhibitor in DIO mice", "format": "in vivo", "details": "2 weeks oral gavage, Compound 1 75 mg/kg, canagliflozin 10 mg/kg", "procedure": "Male C57BL/6J mice, 8 weeks of age were purchased from Jackson, Charles River Laboratories, Inc. (Germany). All animals were housed in the Umeå University animal facility (Umeå Centre for Comparative Biology; UCCB) with a 12:12 hour light-dark cycle (lights on at 6 a.m.) and a constant temperature of 21° C. The animals were ear marked with a unique identification number, and groups of 5 mice were housed in transparent polycarbonate cages that comply with the requirements of the Code of Practice for the housing and care of animals used in scientific procedures. Wood chips were used as bedding material and environmental enrichment was provided. Animals were allowed to acclimate for 15 weeks to their new environment before the onset of the study. The animals were allowed ad libitum access to tap water throughout the accommodation and study period. During the acclimation period, the animals were allowed a standard pelleted diet (CRM (E) Rodent, Special Diets Services, Scanbur BK, Sweden). At the start of the study, the standard diet was changed to a very high fat diet (vHFD; Cat. No. D12492, Research Diets, Inc.) and this diet was kept throughout the whole study period. All of the procedures were approved by the Local Ethics Review Committee on Animal Experiments, Umeå Region.\n23 Weeks old male C57BL/6J mice were fed HFD to promote diet-induced obesity (DIO) and administered once daily by oral gavage; vehicle (phosphate buffer pH 7.3, 2% w/v methyl cellulose; n=11), canagliflozin 10 mg/kg (n=14), Compound 1 at 75 mg/kg (n=14) and the combination of canagliflozin 10 mg/kg and Compound 1 at […] (n=15). After 2 weeks of treatment, fasted (6 hour) blood glucose and plasma insulin levels (determined in tail vein blood samples) were analysed. Food intake and weight were monitored throughout the study.\nBlood samples were collected from the tail vein in Potassium-EDTA vials and plasma was separated by centrifugation and stored at −20° C. until assayed. Plasma insulin was determined with mouse insulin ELISA (Ultra Sensitive Mouse insulin ELISA Kit). Glucose concentrations were analysed in tail vein blood using a OneTouch® Ultra®2 Blood Glucose Meter (LifeScan, Inc).\nResults shown in the figures are expressed as means±standard error of the mean (S.E.M.) for the number of animals per group. Statistical significance between the control group and the three treatment groups were analysed by Student's t-test, with P<0.05 considered statistically significant."}}, "data": [{"smiles": "O=C(Nc1nc(=O)n(Cc2ccc(Cl)cc2)s1)c1ccc(Cl)cc1", "note": "[test material, 4-chloro-N-[2-[(4-chlorophenyl)methyl]-3-oxo-1,2,4-thiadiazol-5-yl]benzamide]", "values": [{"measurement": "activity of PP2C", "setting": "PP2Ca", "result": "without inhibiting the activity of PP2C"}, {"measurement": "2-Deoxy-D-glucose (2-DG) uptake", "setting": "rat skeletal L6 myotubes", "result": "increased 2-Deoxy-D-glucose (2-DG) uptake in a dose- and AMPK-dependent manner"}, {"measurement": "body weight gain", "setting": "CBA mice on HFD; 2 mg/g in HFD, day 1-14, housing temperature", "result": "gained almost no weight"}, {"measurement": "body weight at thermoneutrality, continued on test material-HFD", "setting": "CBA mice on HFD; 30° C. from day 49", "result": "still averted weight gain"}, {"measurement": "increase in core temperature vs HFD (nonsignificant)", "setting": "CBA mice on HFD; 30° C. housing", "result": 0.2, "unit": "°C"}, {"measurement": "core temperature", "setting": "CBA mice on HFD; 30° C. housing, one week after switch, n=5", "result": 37.9, "unit": "°C"}, {"measurement": "body weight after switch from HFD to test material-HFD at thermoneutrality", "setting": "CBA mice on HFD; 30° C., switch at day 57", "result": "rapidly started to lose weight"}, {"measurement": "body weight after switch from HFD to test material-HFD", "setting": "CBA mice on HFD; switch at day 15, housing temperature", "result": "rapidly started to lose weight"}, {"measurement": "HOMA-IR", "setting": "[1]", "result": "statistically significant (***) reduction"}, {"measurement": "fasted plasma insulin", "setting": "[1]; 6 hour fast", "result": "statistically significant (***) reduction"}]}]}
